In US8143254B2, “Methods for modulating ion channels” (Cornell Research Foundation, Inc., priority 2005, dated 2012):

Target: T1, Kv2.1 channels expressed in CHO cells (Rattus norvegicus, UniProt P15387)
T1 construct: expressed in transfected cells; host or cells: CHO cells (transient, co-transfected with GFP plasmid)
T1 sequence (P15387 1-857): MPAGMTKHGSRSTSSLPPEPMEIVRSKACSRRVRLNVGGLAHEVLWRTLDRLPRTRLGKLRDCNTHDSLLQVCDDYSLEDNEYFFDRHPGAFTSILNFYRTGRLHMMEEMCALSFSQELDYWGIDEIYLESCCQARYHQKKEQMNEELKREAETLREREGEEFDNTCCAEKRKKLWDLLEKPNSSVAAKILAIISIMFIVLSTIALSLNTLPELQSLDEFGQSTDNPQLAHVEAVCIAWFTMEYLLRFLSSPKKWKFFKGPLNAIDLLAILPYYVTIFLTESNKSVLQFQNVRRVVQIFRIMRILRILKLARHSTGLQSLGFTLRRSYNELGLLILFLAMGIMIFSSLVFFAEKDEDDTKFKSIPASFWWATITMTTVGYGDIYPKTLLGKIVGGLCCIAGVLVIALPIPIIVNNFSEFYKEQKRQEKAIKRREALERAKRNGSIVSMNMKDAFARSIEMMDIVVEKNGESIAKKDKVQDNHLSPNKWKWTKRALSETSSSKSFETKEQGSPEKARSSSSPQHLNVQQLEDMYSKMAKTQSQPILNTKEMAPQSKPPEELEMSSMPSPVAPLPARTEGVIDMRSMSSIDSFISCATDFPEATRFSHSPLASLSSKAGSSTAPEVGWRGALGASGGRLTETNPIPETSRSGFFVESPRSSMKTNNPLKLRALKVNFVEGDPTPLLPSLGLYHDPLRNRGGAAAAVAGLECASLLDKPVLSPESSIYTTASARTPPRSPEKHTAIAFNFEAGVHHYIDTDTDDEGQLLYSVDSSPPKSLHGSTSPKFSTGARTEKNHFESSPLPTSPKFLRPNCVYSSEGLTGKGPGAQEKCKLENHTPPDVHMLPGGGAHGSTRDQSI
Experiment: Whole-cell voltage clamp of CHO cells transfected with Kv2.1
Assay type: cell-based
Source text: Kv2.1 mutants were constructed using the QuickChange Multi Site-Directed Mutagenesis Kit (Stratagene, La Jolla, Calif.). Mutant Kv2.1 genes (in the pGA1 oocyte expression vector for oocyte expression) were sequenced in their entirety to confirm appropriate mutations and check for inadvertent mutations, and then subcloned into a wild-type pGA1 backbone. For oocyte expression, Kv3.4 was in pBF1, Kv4.2 was in pRAT. cRNA transcripts were produced from SacII-linearized (Kv2.1), Mlullinearized (Kv3.4) and Not1-linearized (Kv4.2) DNA templates using the T3 (Kv2.1), SP6 (Kv3.4) and T7 (Kv4.2) mMessage mMachine kits (Ambion, Austin, Tex.). cRNA was quantified by spectrophotometry and its size integrity verified by gel electophoresis. Defolliculated stage V and VI Xenopus laevis oocytes (purchased from Nasco, Grand Island, N.Y.) were injected with 5 ng of cRNA encoding Kv2.1, Kv3.4 or Kv4.2. Chinese Hamster Ovary (CHO) cells were transfected with 0.25 μg Kv2.1 cDNA, 2 μg blank plasmid and 2 μg Green fluorescent Protein in pBOB using Supetfect transfection reagent (Qiagen) 24 hours before whole-cell voltage clamp studies.
For whole-cell voltage clamp studies of CHO cells, bath solution was (in mM): 135 NaCl, 5 KCl, 1.2 MgCl2, 5 HEPES, 2.5 CaCl2, and 10 D-glucose, pH 7.4. Pipettes were 3-5 MQ resistance when filled with intracellular solution containing (in mM): 10 NaCl, 117 KCl, 2 MgCl2, 11 HEPES, 11 EGTA, and 1 CaCl2, pH 7.2. For experiments with extracellular drug application, cells were held at −80 mV and subjected to 2 sec test pulses […] every 30 s. Whole-cell patch clamp recordings were performed at 22-25° C. using an IX50 inverted microscope equipped with epifluorescence optics for GFP detection (Olympus), a Multiclamp 700 A Amplifier, a Digidata 1300 Analogue/Digital converter and pClamp9 software (Axon Instruments). Leak and liquid junction potentials (<4 mV) were not compensated for when generating current-voltage relationships. For intracellular drug application, the tip of the recording electrode was first filled with drug-free intracellular solution, the electrode was then back-filled with intracellular solution containing TEA (20 mM), TA279 (5 mM) or JC638.2α (0.5 mM). Cells were held at −80 mV and subjected to 2 sec test pulses from −60 mV to +60 mV in 10 mV increments, followed by a 1 sec tail pulse to −30 mV. After an initial recording which we denoted time 0, a second recording was performed after 5 minutes.
Data analysis: Current-voltage relationships were obtained by measuring peak current during depolarizing pulses. Inhibition constants for DABCO blockers were calculated after generating a dose response curve by fitting with a logistic dose-response function y=A2+[A1−A2/1+(x/x0)^p], where A1 is the maximum response plateau, A2 is the minimum response plateau, x is drug concentrator, x0 is the IC50, and p the Hill slope. Data analysis was performed using CLAMPFIT 9 (Axon Instruments, Foster City, Calif.) and tabulated in Excel 5.0. Graphs were generated using Origin 6.1. Data are expressed as mean±SEM, with n specifying the number of independent experiments. Statistical significance was assessed by one-way ANOVA with p<0.05 being indicative of significance.

c1cc(C[N+]23CCN(CC2)CC3)ccc1C[N+]12CCN(CC1)CC2 [JC638.2α, α,α′-[bis(4-aza-1-azoniabicyclo[2.2.2]octanyl)]p-xylene]
block on intracellular application (0.5 mM via recording electrode, 0 mV): no significant block

CCCCCCCCCCCCCCCC[N+]12CCN(CC1)CC2 [TA279, 1-aza-4-azonia-4-hexadecylbicyclo[2.2.2]octane]
sensitivity of Kv2.1 in CHO cells relative to Kv2.1 in oocytes: ~4 fold | block on intracellular application (5 μM via recording electrode, 0 mV, at 0 or 5 minutes): no significant block | inhibition at 0.5 µM (CHO, extracellular application, 500 nM, 0 mV, n=3, read-out: mean current inhibition): 59 ± 4%
